Results from patent publication US20250312469A1 (CANGET BIOTEKPHARMA, priority 2024, published 2025).
Where two headings read alike, the source gives them in different places. Marks after values point to notes of the source that are not given here.

[1] = Female, 4.69→ 2 mg/kg/wk, Day 15
[2] = female rats, 4.69→2 mg/kg/wk, Day 15
[3] = female rats, Group 3, 3.75/2.5 mg/kg/wk oral, Day 15
[4] = female rats, Group 4, 4.69/2 mg/kg/wk oral, Day 15
[5] = male rats, 4.69→2 mg/kg/wk, Day 15, 2 animals
[6] = male rats, Group 2, 3 mg/kg/wk, Day 15
[7] = male rats, Group 2, 3 mg/kg/wk, Day 15, vs Group 1
[8] = male rats, Group 3, 3.75/2.5 mg/kg/wk oral, Day 15
[9] = male rats, Group 3, 3.75/2.5 mg/kg/wk, Day 15
[10] = male rats, Group 3, 3.75/2.5 mg/kg/wk, Day 15, vs Group 1
[11] = male rats, Group 4, 4.69/2 mg/kg/wk oral, Day 15, N 2, vs vehicle Group 1
[12] = male rats, Group 4, 4.69/2 mg/kg/wk, Day 15, vs Group 1

## CCC1(O)C(=O)OCc2c1cc1n(c2=O)Cc2cc3cc4c(cc3nc2-1)OCO4 (centres unmarked) [FL118]
3 mg/kg/wk
  decrease of body weight, males, Day 14: 18.15%
3.75→2.5 mg/kg/wk
  decrease of body weight, males, Day 14: 17.41%
4.69 (day 1) and 2 mg/kg/wk (day 8)
  mortality: two male mice died on day 6 and day 12
4.69→2 mg/kg/wk
  decrease of body weight, males, Day 14: 47.53%
[1]
  #LYMP, percent difference in mean values from concurrent controls: −37.76%
  WBC, percent difference in mean values from concurrent controls: −33.69%
Male, 3 mg/kg/wk, Day 15
  WBC, percent difference in mean values from concurrent controls: −16.11%
Male, 3.75→ 2.5 mg/kg/wk, Day 15
  WBC, percent difference in mean values from concurrent controls: −11.98%
Male, 4.69→ 2 mg/kg/wk, Day 15
  #LYMP, percent difference in mean values from concurrent controls: −57.17%
  WBC, percent difference in mean values from concurrent controls: −52.17%
[2]
  ALT, percent difference in mean values from concurrent controls: 122%
  sGLU, percent difference in mean values from concurrent controls: −19.47%
[3]
  #BASO, basophils, absolute, Mean: 0.01 10^3/μL
  #EOS, eosinophils, absolute, Mean: 0.07 10^3/μL
  #LYMP, lymphocytes, absolute, Mean: 5.87 10^3/μL
  #MONO, monocytes, absolute, Mean: 0.17 10^3/μL
  #NEUT, neutrophils, absolute, Mean: 0.87 10^3/μL
  % BASO, basophils, percent, Mean: 0.2%
  % EOS, eosinophils, percent, Mean: 1.0%
  % LYMP, lymphocytes, percent, Mean: 83.5%
  % MONO, monocytes, percent, Mean: 2.4%
  % NEUT, neutrophils, percent, Mean: 12.1%
  % RET, reticulocytes, percent, Mean: 5.05%
  ALB, albumin, Mean: 37.5 g/L
  ALP, alkaline phosphatase, Mean: 83 U/L
  ALT, alanine aminotransferase, Mean: 33 U/L
  AST, aspartate aminotransferase, Mean: 89 U/L
  BIL-T, total bilirubin, Mean: 1.59 µmol/L
  CK, creatine kinase, Mean: 247 U/L
  CRE, creatinine, Mean: 24 µmol/L
  Ca, calcium, Mean: 2.42 mmol/L
  GLB, globulin, Mean: 23.0 g/L
  HCT, hematocrit, Mean: 19.8%
  HGB, hemoglobin, Mean: 13.2 g/dL
  K, potassium, Mean: 4.3 mmol/L
  MCH, mean corpuscular hemoglobin, Mean: 19.3 pg
  MCHC, mean corpuscular hemoglobin concentration, Mean: 33.3 g/dL
  MCV, mean corpuscular volume, Mean: 58.0 fL
  MPV, mean platelet volume, Mean: 6.8 fL
  Na, sodium, Mean: 142 mmol/L
  P, inorganic phosphorus, Mean: 2.20 mmol/L
  PLT, platelet count, Mean: 1295 10^3/μL
  RBC, red blood cell, Mean: 6.88 10^6/μL
  RDW, RBC distribution width, Mean: 12.9* %
  TCHO, total cholesterol, Mean: 1.70 mmol/L
  TG, triglyceride, Mean: 0.26 mmol/L
  UREA, urea, Mean: 6.29 mmol/L
  WBC, white blood cell, Mean: 7.03 10^3/μL
  sGLU, glucose, Mean: 9.43 mmol/L
[4]
  #BASO, basophils, absolute, Mean: 0.01 10^3/μL
  #EOS, eosinophils, absolute, Mean: 0.05 10^3/μL
  #LYMP, lymphocytes, absolute, Mean: 4.03 10^3/μL
  #MONO, monocytes, absolute, Mean: 0.13 10^3/μL
  #NEUT, neutrophils, absolute, Mean: 0.62 10^3/μL
  % BASO, basophils, percent, Mean: 0.1%
  % EOS, eosinophils, percent, Mean: 1.0%
  % LYMP, lymphocytes, percent, Mean: 82.7%
  % MONO, monocytes, percent, Mean: 2.9%
  % NEUT, neutrophils, percent, Mean: 12.7%
  % RET, reticulocytes, percent, Mean: 4.79%
  ALB, albumin, Mean: 36.6 g/L
  ALP, alkaline phosphatase, Mean: 88 U/L
  ALT, alanine aminotransferase, Mean: 75 U/L
  AST, aspartate aminotransferase, Mean: 222 U/L
  BIL-T, total bilirubin, Mean: 2.66 µmol/L
  CK, creatine kinase, Mean: 427 U/L
  CRE, creatinine, Mean: 24 µmol/L
  Ca, calcium, Mean: 2.37 mmol/L
  GLB, globulin, Mean: 22.0 g/L
  HCT, hematocrit, Mean: 40.0%
  HGB, hemoglobin, Mean: 13.6 g/dL
  K, potassium, Mean: 4.6 mmol/L
  MCH, mean corpuscular hemoglobin, Mean: 19.6 pg
  MCHC, mean corpuscular hemoglobin concentration, Mean: 33.8 g/dL
  MCV, mean corpuscular volume, Mean: 57.8 fL
  MPV, mean platelet volume, Mean: 6.7 fL
  Na, sodium, Mean: 142 mmol/L
  P, inorganic phosphorus, Mean: 1.92 mmol/L
  PLT, platelet count, Mean: 1278 10^3/μL
  RBC, red blood cell, Mean: 6.94 10^6/μL
  RDW, RBC distribution width, Mean: 13.7* %
  TCHO, total cholesterol, Mean: 1.37 mmol/L
  TG, triglyceride, Mean: 0.29 mmol/L
  TP, total protein, Mean: 58.5 g/L
  UREA, urea, Mean: 9.54 mmol/L
  WBC, white blood cell, Mean: 4.85 10^3/μL
  sGLU, glucose, Mean: 8.25 mmol/L
Male rats, 3 mg/kg/wk, Day 15
  ALT, percent difference in mean values from concurrent controls: 19%
Male rats, 3.75→2.5 mg/kg/wk, Day 15
  ALT, percent difference in mean values from concurrent controls: 34%
[5]
  ALT, percent difference in mean values from concurrent controls: 275%
  sGLU, percent difference in mean values from concurrent controls: −59.96%
[6]
  #BASO Mean: 0.02 10^3/μL
  #EOS Mean: 0.06 10^3/μL
  #LYMP Mean: 7.94 10^3/μL
  #MONO Mean: 0.21 10^3/μL
  #NEUT Mean: 0.72 10^3/μL
  #RET Mean: 337.2 10^9/L
  % BASO Mean: 0.2%
  % EOS Mean: 0.7%
  % LYMP Mean: 88.2%
  % MONO Mean: 2.5%
  % NEUT Mean: 7.9%
  % RET Mean: 4.68%
  HCT Mean: 42.1* %
  MCH Mean: 19.2 pg
  MCHC Mean: 32.8 g/dL
  MCV Mean: 58.3 fL
  MPV Mean: 6.6 fL
  PLT Mean: 1172 10^3/μL
  RBC Mean: 7.22 10^6/μL
  RDW Mean: 13.5** %
  WBC Mean: 9.01 10^3/μL
[7]
  #BASO % Diff: −25.00%
  #EOS % Diff: −43.40%
  #LYMP % Diff: −13.38%
  #MONO % Diff: −25.17%
  #NEUT % Diff: −34.07%
  #RET % Diff: 53.1%
  % BASO % Diff: −8.3%
  % EOS % Diff: −35.2%
  % LYMP % Diff: 3.7%
  % MONO % Diff: −6.6%
  % NEUT % Diff: −24.1%
  % RET % Diff: 62.09%
  HCT % Diff: −8.0%
  HGB % Diff: −8.9%
  MCHC % Diff: −0.8%
  MCV % Diff: −2.7%
  MPV % Diff: −2.7%
  PLT % Diff: 14%
  RDW % Diff: 15.7%
  WBC % Diff: −16.11%
[8]
  ALB, albumin, Mean: 34.1 g/L
  ALP, alkaline phosphatase, Mean: 113 U/L
  ALT, alanine aminotransferase, Mean: 47 U/L
  AST, aspartate aminotransferase, Mean: 104 U/L
  BIL-T, total bilirubin, Mean: 1.83
  CK, creatine kinase, Mean: 296 U/L
  CRE, creatinine, Mean: 19 µmol/L
  Ca, calcium, Mean: 2.41 mmol/L
  GLB, globulin, Mean: 22.0 g/L
  K, potassium, Mean: 5.0 mmol/L
  Na, sodium, Mean: 143 mmol/L
  P, inorganic phosphorus, Mean: 2.38 mmol/L
  TCHO, total cholesterol, Mean: 1.73* mmol/L
  TG, triglyceride, Mean: 0.33 mmol/L
  TP, total protein, Mean: 56.1 g/L
  UREA, urea, Mean: 5.60 mmol/L
  sGLU, glucose, Mean: 10.18 mmol/L
[9]
  #BASO Mean: 0.02 10^3/μL
  #EOS Mean: 0.07 10^3/μL
  #LYMP Mean: 8.02 10^3/μL
  #MONO Mean: 0.23 10^3/μL
  #NEUT Mean: 1.04 10^3/μL
  #RET Mean: 342.9 10^9/L
  % BASO Mean: 0.2%
  % EOS Mean: 0.8%
  % LYMP Mean: 84.7%
  % MONO Mean: 2.4%
  % NEUT Mean: 11.2%
  % RET Mean: 4.74%
  HCT Mean: 42.3* %
  HGB Mean: 13.8** g/dL
  MCH Mean: 19.0 pg
  MCHC Mean: 32.6 g/dL
  MCV Mean: 58.2 fL
  MPV Mean: 6.5 fL
  PLT Mean: 1129 10^3/μL
  RDW Mean: 14.1*** %
  WBC Mean: 9.43 10^3/μL
[10]
  #EOS % Diff: −30.19%
  #LYMP % Diff: −12.51%
  #MONO % Diff: −18.88%
  #NEUT % Diff: −4.40%
  #RET % Diff: 55.7%
  % EOS % Diff: −22.2%
  % LYMP % Diff: −0.4%
  % MONO % Diff: −10.3%
  % NEUT % Diff: 7.9%
  % RET % Diff: 64.10%
  HCT % Diff: −7.5%
  HGB % Diff: −8.6%
  MCHC % Diff: −1.3%
  MCV % Diff: −2.9%
  PLT % Diff: 10%
  RDW % Diff: 20.5%
  WBC % Diff: −11.98%
[11]
  ALB, albumin, % Diff: −28.9%
  ALP, alkaline phosphatase, % Diff: −45%
  ALT, alanine aminotransferase, % Diff: 27.5%
  AST, aspartate aminotransferase, % Diff: 1.54%
  BIL-T, total bilirubin, % Diff: 187.51%
  CK, creatine kinase, % Diff: 13%
  CRE, creatinine, % Diff: −3%
  Ca, calcium, % Diff: −15.35%
  Cl, chloride, % Diff: −3%
  K, potassium, % Diff: 2.6%
  Na, sodium, % Diff: −1%
  P, inorganic phosphorus, % Diff: −13.59%
  TCHO, total cholesterol, % Diff: 9.81%
  TG, triglyceride, % Diff: 52.32%
  TP, total protein, % Diff: −33.1%
  UREA, urea, % Diff: 71.64%
  sGLU, glucose, % Diff: −50.96%
[12]
  #BASO % Diff: −58.33%
  #EOS % Diff: −95.28%
  #LYMP % Diff: −57.17%
  #MONO % Diff: −0.35%
  #NEUT % Diff: −19.87%
  #RET % Diff: −87.2%
  % BASO % Diff: −37.5%
  % EOS % Diff: −95.4%
  % LYMP % Diff: −11.9%
  % MONO % Diff: 76.5%
  % NEUT % Diff: 88.7%
  % RET % Diff: −87.53%
  HCT % Diff: 1.7%
  HGB % Diff: 7.1%
  MCHC % Diff: 5.4%
  MCV % Diff: −6.8%
  MPV % Diff: −5.3%
  PLT % Diff: −11%
  RBC % Diff: 8.98%
  RDW % Diff: 4.3%
  WBC % Diff: −52.17%
oral, once weekly
  NOAEL, females: 3 mg/kg/wk
  NOAEL, males: 2 mg/kg/wk
